Test in all cases: Mammalian 2-hybrid assay (VDR-coregulator interaction, HepG2)
Type in all cases: cell-based
Holding throughout (settings): 100 μM LCA

In one test the target is T1, Bichir VDR (Polypterus senegalus, UniProt A0A088GJ14).
T1 sequence (A0A088GJ14 1-421): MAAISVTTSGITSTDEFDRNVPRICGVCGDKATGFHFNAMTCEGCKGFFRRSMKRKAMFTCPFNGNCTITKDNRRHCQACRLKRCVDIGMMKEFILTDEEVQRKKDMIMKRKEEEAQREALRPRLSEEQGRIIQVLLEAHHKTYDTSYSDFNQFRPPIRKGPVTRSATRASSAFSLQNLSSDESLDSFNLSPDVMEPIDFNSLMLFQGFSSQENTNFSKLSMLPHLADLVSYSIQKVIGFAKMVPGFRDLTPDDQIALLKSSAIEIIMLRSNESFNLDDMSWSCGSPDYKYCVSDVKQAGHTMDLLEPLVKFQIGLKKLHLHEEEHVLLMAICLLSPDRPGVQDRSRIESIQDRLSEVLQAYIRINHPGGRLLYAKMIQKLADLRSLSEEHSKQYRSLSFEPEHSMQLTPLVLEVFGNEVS
T1 sequence (P19793 1-462 partner): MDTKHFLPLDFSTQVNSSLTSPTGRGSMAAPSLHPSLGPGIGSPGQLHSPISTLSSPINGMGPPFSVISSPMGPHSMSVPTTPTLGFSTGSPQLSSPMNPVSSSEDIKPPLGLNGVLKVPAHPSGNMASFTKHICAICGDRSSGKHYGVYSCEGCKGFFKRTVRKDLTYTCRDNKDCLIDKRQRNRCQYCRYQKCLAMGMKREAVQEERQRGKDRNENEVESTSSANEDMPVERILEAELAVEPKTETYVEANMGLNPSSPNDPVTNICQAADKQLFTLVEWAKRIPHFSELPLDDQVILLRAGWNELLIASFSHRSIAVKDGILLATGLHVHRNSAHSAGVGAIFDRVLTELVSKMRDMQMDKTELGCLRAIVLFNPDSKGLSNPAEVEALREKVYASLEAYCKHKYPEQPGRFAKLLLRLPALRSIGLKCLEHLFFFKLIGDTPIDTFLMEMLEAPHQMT
An excerpt: (§1) Prey constructs included full-length VDRs fused to the herpes simplex VP16 activation domain (pVP16-VDR). Bait constructs consisted of either full-length wild-type human RXR (pM-RXRWT), a truncated human RXR mutant (pM-RXRAF2), or the defined NR box of each member of the SRC/p160 family (pM-SRC1_241-386, pM-GRIP1_479-767, or pM-ACTR392-1005) fused to the yeast Gal4 DNA-binding domain. Reporters included the Gal4 luciferase reporter (5xGal4-TATA-Luc) and pRL-CMV as an internal luciferase control.
(§2) HepG2 cells were seeded into 96-well tissue culture plates as described above and transfected with Lipofectamine 2000 the following day. Each well received 33.6 ng pVP16-VDR, 33.6 ng pM-coregulator (where indicated), 126.6 ng 5XGal4-TATA-Luc, and 3 ng pRL-CMV. […] Positive controls were treated with 1,25D3 and vehicle controls were treated with ethanol. Luciferase activity was measured 24 hours post-exposure using the Dual-Glo Luciferase Assay System described above. Raw luciferase data were normalized to the pRL-CMV luciferase control. VDR-coregulator response was normalized to the pVP16-VDR in the absence of bait constructs. Results were analyzed using a two-way ANOVA followed by Bonferroni’s multiple comparisons test in Prism (GraphPad Inc, San Diego, CA). All experiments were replicated 3 times and conducted as groups of 4 replicate wells.

Another test concerns the target T2, Lamprey VDR (Petromyzon marinus, UniProt Q7ZZY9).
T2 sequence (Q7ZZY9 1-406): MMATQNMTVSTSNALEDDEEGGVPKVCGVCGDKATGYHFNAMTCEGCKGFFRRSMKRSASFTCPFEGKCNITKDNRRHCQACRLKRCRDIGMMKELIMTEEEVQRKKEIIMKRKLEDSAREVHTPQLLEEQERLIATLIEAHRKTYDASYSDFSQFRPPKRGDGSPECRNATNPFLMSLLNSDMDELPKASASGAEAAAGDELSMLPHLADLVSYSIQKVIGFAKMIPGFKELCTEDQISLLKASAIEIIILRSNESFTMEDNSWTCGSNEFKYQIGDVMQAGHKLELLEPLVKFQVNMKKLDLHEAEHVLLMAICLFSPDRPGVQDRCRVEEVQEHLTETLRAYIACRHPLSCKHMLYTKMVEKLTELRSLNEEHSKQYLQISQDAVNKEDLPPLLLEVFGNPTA
T2 sequence (P19793 1-462 partner): T1 sequence (P19793 1-462 partner)
Excerpt: as §1, §2

The next test concerns the target Medaka VDRα (Oryzias latipes, UniProt B2CCA0).
Excerpt: as §1, §2

The target of the next test is T3, Zebrafish VDRα (Danio rerio, UniProt Q9PTN2).
T3 construct: 89.7 ng/well of full-length pSG5-VDR was co-transfected; expressed in transfected cells; host or cells: HepG2
T3 sequence (Q9PTN2 1-453): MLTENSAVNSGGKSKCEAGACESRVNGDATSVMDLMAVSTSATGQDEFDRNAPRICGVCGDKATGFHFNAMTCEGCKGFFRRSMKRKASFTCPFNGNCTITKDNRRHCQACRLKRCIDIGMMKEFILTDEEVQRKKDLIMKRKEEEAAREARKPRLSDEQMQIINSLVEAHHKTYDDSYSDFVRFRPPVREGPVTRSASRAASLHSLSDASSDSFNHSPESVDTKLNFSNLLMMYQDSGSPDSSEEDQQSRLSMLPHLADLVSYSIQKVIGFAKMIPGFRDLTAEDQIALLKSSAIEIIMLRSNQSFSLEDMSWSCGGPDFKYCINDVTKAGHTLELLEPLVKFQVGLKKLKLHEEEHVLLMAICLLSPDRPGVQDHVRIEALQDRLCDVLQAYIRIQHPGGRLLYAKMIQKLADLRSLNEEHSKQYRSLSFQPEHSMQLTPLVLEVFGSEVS
Excerpt: as §1, §2

The mark [1] stands for this setting: any of the SRC/p160 coactivators.
Setting [2] is: bait human RXRWT, presence and absence of SRC1.

Sequence of Medaka VDRα (B2CCA0 entry or part of it, one chain of several): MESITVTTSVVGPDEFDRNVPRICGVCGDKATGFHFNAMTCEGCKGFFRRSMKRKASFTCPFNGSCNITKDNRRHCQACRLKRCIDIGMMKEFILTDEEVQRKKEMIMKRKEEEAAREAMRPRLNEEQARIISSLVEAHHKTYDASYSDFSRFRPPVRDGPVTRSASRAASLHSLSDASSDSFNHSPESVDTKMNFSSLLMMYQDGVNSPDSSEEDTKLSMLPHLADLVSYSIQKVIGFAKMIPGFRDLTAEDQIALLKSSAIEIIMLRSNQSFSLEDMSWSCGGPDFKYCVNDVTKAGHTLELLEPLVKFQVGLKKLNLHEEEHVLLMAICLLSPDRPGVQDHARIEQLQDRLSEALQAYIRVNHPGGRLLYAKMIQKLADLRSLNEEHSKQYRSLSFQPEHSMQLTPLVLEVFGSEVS

On to `C[C@H](CCC(=O)O)[C@H]1CC[C@H]2[C@@H]3CC[C@@H]4C[C@H](O)CC[C@]4(C)[C@H]3CC[C@]12C` [LCA, 5β-cholanic acid-3α-ol], for which the VDR-SRC/p160 coactivator interaction entry at Bichir VDR (setting [1]) and at Lamprey VDR (setting [1]) was “No protein-protein interaction was observed” each time. Also, the “VDR-RXRWT interaction (heterodimerization)” value at Bichir VDR (setting [2]) was “not observed”; at Lamprey VDR (setting [2]), “not observed”; at Medaka VDRα (bait human RXRWT), “Robust and significant VDR-RXRWT interactions”; on Zebrafish VDRα (bait human RXRWT), “Robust and significant VDR-RXRWT interactions”. Also, the VDR-SRC1 interaction result on Medaka VDRα (cotransfection of RXRWT) is “strong VDR-SRC1 interactions”; on Zebrafish VDRα (absence of cotransfected RXRWT), “successfully recruited SRC1”; on Zebrafish VDRα (cotransfection of RXRWT) it was “strong VDR-SRC1 interactions”.

Values taken from PMC5152921, “Evolutionary and Functional Diversification of the Vitamin D Receptor-Lithocholic Acid Partnership” (PLoS ONE, 2016).
